According to publication PMC7719495 (BioMed Research International, 2020):

How the values were obtained:
[1] = HPLC analysis of the content of AMPB in mice plasma and brain tissue; format: in vivo, KM mice; conditions: compared with AMPB group; AMPB 3 mg/kg iv q.d.; POS 90 mg/kg gavage, zosuquidar 20 mg/kg, Ko143 10 mg/kg, elacridar 2.5 mg/kg iv, b.i.d. 4 days; 4 h after last administration
Method: POS, zosuquidar, Ko143, and elacridar were administered for 4 consecutive days (b.i.d., 9 a.m. and 9 p.m).
4 h after the last administration, the mouse eyeball was taken for blood sample acquisition, in a commercial 1.5 mL centrifuge tube containing the anticoagulant EDTA, with sterilized ophthalmic bending forceps. Samples were centrifuged at 3000 rpm for 10 min. And the bottom plasma was gently extracted and separated with micropipeter. Then, plasma proteins were precipitated by adding 300 μL methanol to 100 μL plasma, followed by vortex for 10 s and let it stand for 5 min. After that, the samples were centrifuged at 4°C, 13000 rpm, for 10 min. Finally, the plasma test solution was fulfilled by filtering it through the 0.22 μm microporous membrane.
After the completion of blood, the mice brain was quickly removed. Moderate brain tissue samples were mixed with physiological saline for homogenate preparation. And proteins were precipitated by adding 300 μL methanol to 100 μL homogenate, followed by vortex for 10 s, and let it stand for 5 min, and then centrifuged at 4°C, 13000 rpm, for 10 min. Finally, the brain test solution was fulfilled by filtering it through the 0.22 μm microporous membrane. […] The analytical column was a Diamonsil (2) C18 column (250 mm ×4.6 mm, 5 μm) maintained at 30°C. The mobile phase consisted of 10 mM ammonium acetate aqueous solution (PH4) and acetonitrile, with the flow rate of 1.0 mL/min and the injection volume of 50 μL.

[2] = system: mice brain capillary endothelial cells (BCECs); test: AMPB uptake by BCECs, HPLC; format: cell-based; conditions: 30, 60, 120, 180 min, compared with AMPB group
Method: The mice brain capillary endothelial cells (BCECs, cat. no. BNCC35187) were purchased from Beijing Beina Chuanglian Biotechnology Research Institute (Beijing, China). BCECs were resuscitated in a constant temperature water bath at 37°C and then inoculated in a petri dish. The cells were cultured with the 1640 medium containing 10% FBS in a 5% CO2 cell incubator at 37°C. The culture medium was changed every other day, and the cells were digested with 0.25% trypsin when they converged and proliferated to form a full layer at the bottom of the dish. 1 mL cell suspensions were seeded in 12-well plates at a density of 1 × 10^5 cells/mL per well. The drug was administered after the cells being completely adherent to the wall. 2.16 μM AMBP solution was prepared with the 1640 medium and then was used to prepare POS solution at concentrations of 2.85 μM, 5.71 μM, and 11.42 μM, 5 μM zosuquidar, 5 μM Ko143, 1 mM elacridar, and 40 g/L albumin solution, respectively.
The cells were randomly divided into the following 8 groups: 2.16 μM AMBP, 2.16 μM AMBP+POS (2.85 μM, 5.71 μM, and 11.42 μM), 2.16 μM AMBP+5 μM zosuquidar, 2.16 μM AMBP+5 μM Ko143, 2.16 μM AMBP+1 mM elacridar, and 2.16 μM AMBP+40 g/L albumin. Three wells were set at each time point in each group and cultured at 37°C. Cell samples were collected at 30 min, 60 min, 120 min, and 180 min after drug administration, respectively. BCECs were eluted with Hanks' balanced salt solution for 3 times and then incubated with 1% Triton X-100 (200 μL/per well) at 4°C for 12 h to lyse the cells.

plasma protein [3] = test: Balanced (equilibrium) dialysis of free AMPB in in vitro plasma; format: in vitro ADME, mouse; conditions: 37°C, 6 h
Method: (§1) The equilibrium dialysis experiments were performed by the Thermo Fisher Scientific rapid equilibrium dialysis (RED) device. […] The prepared sample solutions were added into the holes of RED plate, respectively, with a 300 μL sample loading. In the corresponding buffer holes, 550 μL, 1% Triton X-100 solution was added. After the sample loading was completed, the sample was put into a 37°C constant temperature oscillator, and the dialysis was balanced at 100 rpm for 6 h. […] And then, the protein or drug-protein complexes with a molecular weight ≥ […] were retained by adding 1 mL of drug-containing plasma mixture into the Centrifree® overfiltration unit and centrifuging it at 13000 rpm and 4°C for 20 min.

Cryptococcus neoformans [4] = test: Counting of Cryptococcus neoformans colonies in the brain tissue; format: in vivo; conditions: cryptococcal meningitis mice; AMPB 3 mg/kg, POS 180 mg/kg, 14 days; p < 0.01 compared with model group
Method: Except the control group, the mice in the other four groups were all injected with the lateral ventricular cryptococcus suspension at the dose of 1 × 10^8 CFU/mL, 5 μL for each mouse [19]. And the control group was injected with the same volume of normal saline. […] After 5 days, mice in each group were administered with the corresponding drugs mentioned above, continuously for 14 days. And the time and frequency of administration are described above. The mice were then anesthetized with ether for 24 h after the last administration. Next, the brain tissue was promptly removed for H&E staining and colonization detection of Cryptococcus neoformans. The brain tissue was homogenized with normal saline at a ratio of 1 : 1 (g : v). And then, 100 μL homogenate suspension was gradient diluted to concentrations of 1, 0.1, 0.01, and 0.001 g/mL. At each concentration, 10 μL of brain tissue suspension was uniformly applied to yeast extract peptone dextrose medium and cultured in a 30°C incubator for 48 h [22]. Then, the colony count of cryptococcus neoformans was performed.

Cryptococcus neoformans [5] = test: H&E staining of brain pathology in mice with cryptococcal meningitis; format: in vivo; conditions: AMPB 3 mg/kg, POS 180 mg/kg, 14 days, compared with model group
Method: Except the control group, the mice in the other four groups were all injected with the lateral ventricular cryptococcus suspension at the dose of 1 × 10^8 CFU/mL, 5 μL for each mouse [19]. And the control group was injected with the same volume of normal saline. […] After 5 days, mice in each group were administered with the corresponding drugs mentioned above, continuously for 14 days. […] The mice were then anesthetized with ether for 24 h after the last administration. Next, the brain tissue was promptly removed for H&E staining and colonization detection of Cryptococcus neoformans. The mouse brain tissue was fixed with 4% paraformaldehyde at 25°C for 24 h, followed by washing with running water for 0.5 h [20, 21]. The brain was then dehydrated with 75%, 85%, 95%, and anhydrous ethanol for 6 h, 10 h, 4 h, and 2 h, respectively. After permeabilization with xylene I for 20 min and xylene II for 15 min, the brain was embedded in paraffin for 3 h and then cut into 5 μm slices using a microtome (RM2235, Leica Biosystems, Wetzlar, Germany) and roasted at 60°C. After dewaxing with xylene, the slices were stained with hematoxylin and eosin. Random photographs of three fields were acquired using a CX22 light microscope at ×400 magnification (Olympus Corporation, Tokyo, Japan).

plasma protein [6] = system: plasma protein; parameters: method as in earlier work; conditions: cited from earlier work
plasma protein [7] = test: Ultrafiltration analysis of free AMPB in in vitro plasma; format: in vitro ADME; conditions: 37°C, 2 h, p < 0.0001 vs AMPB group
Method: as §1

[8] = 5 μM zosuquidar, 5 μM Ko143 or 1 mM elacridar + 2.16 μM AMPB

With COc1ccc2c3c([nH]c2c1)[C@H](CC(C)C)N1C(=O)[C@H](CCC(=O)OC(C)(C)C)NC(=O)[C@@H]1C3 [Ko143] as the molecule, how does the “AMPB brain tissue/plasma drug ratio” value [1] read?
Its value is “no effect”.

What about the “brain tissue concentration of AMPB” value [1] of the same molecule?
Its value is “no effect”.

And the “plasma drug concentration of AMPB” value [1]?
The value was “no effect”.

And the “effect on AMPB uptake by BCECs” value [2, 8]?
Its value is “no significant effect”.

For CC[C@@H]([C@H](C)O)n1ncn(-c2ccc(N3CCN(c4ccc(OC[C@@H]5CO[C@@](Cn6cncn6)(c6ccc(F)cc6F)C5)cc4)CC3)cc2)c1=O [POS, posaconazole], which “effect on plasma free AMPB (balanced dialysis)” value (plasma protein [3]; POS 4 μg/mL + AMPB 0.5 μg/mL in mouse plasma, p < 0.05 vs AMPB group) is on record?
The value was “prominently elevate”.

What about the “effect on plasma free AMPB (balanced dialysis)” value (plasma protein [3]; POS 8 μg/mL + AMPB 0.5 μg/mL in mouse plasma, p < 0.01 vs AMPB group) of the same molecule?
The value was “prominently elevate”.

What about the “number of cryptococcus neoformans in the brain (colony culture)” value (Cryptococcus neoformans [4]) of the same molecule?
The value was “evidently inhibit”.

What about the “effect on AMPB uptake by BCECs” value ([2]; POS 2.85, 5.71 and 11.42 μM + 2.16 μM AMPB) of the same molecule?
The value was “no significant effect”.

What about the “cortical pathological injuries (inflammatory cell infiltration, bleeding), H&E staining” value (Cryptococcus neoformans [5]) of the same molecule?
The value was “improve the above pathological injuries”.

What about the “plasma protein binding rate” value (plasma protein [6]) of the same molecule?
The value was 98%.

And the “effect on plasma concentration of free AMPB (ultrafiltration)” value (plasma protein [7]; POS 4 μg/mL + AMPB 2.0 μg/mL in plasma)?
Its value is “potentially increase”.

And the “effect on plasma concentration of free AMPB (ultrafiltration)” value (plasma protein [7]; POS 8 μg/mL + AMPB 2.0 μg/mL in plasma)?
Its value is “potentially increase”.

For O[C@@H](COc1cccc2ncccc12)CN1CCN([C@@H]2c3ccccc3[C@@H]3[C@H](c4ccccc42)C3(F)F)CC1 [zosuquidar], which “effect on AMPB uptake by BCECs” value [2, 8] is on record?
The value was “no significant effect”.

With C[C@@H]1[C@H](O)[C@@H](C)/C=C/C=C/C=C/C=C/C=C/C=C/C=C/[C@H](O[C@@H]2O[C@H](C)[C@@H](O)[C@H](N)[C@@H]2O)C[C@@H]2O[C@](O)(C[C@@H](O)C[C@@H](O)[C@H](O)CC[C@@H](O)C[C@@H](O)CC(=O)O[C@H]1C)C[C@H](O)[C@H]2C(=O)O [AMPB, amphotericin B] as the molecule, how does the “plasma protein binding rate” value (plasma protein [6]) read?
The value was 90%.

Which “effect on AMPB uptake by BCECs” value [2, 8] does the source give for COc1cc2c(cc1OC)CN(CCc1ccc(NC(=O)c3cccc4c(=O)c5cccc(OC)c5[nH]c34)cc1)CC2 [elacridar] here?
The value was “no significant effect”.
